In patent publication US9163044B2, “Carbon monoxide releasing molecules and uses thereof” (Alfama, Inc., priority 2011, dated 2015):

Columns and labels:
[1] = test system: APAP-induced acute liver failure (ALF) model; assay: APAP-induced acute liver failure (ALF) model, sublethal (300 mg/kg APAP i.p.); format: in vivo, C57Bl/6 male mice; details: for ALT levels reduced relative to untreated control animals: +5 h after APAP (300 mg/kg), ALT at 22 hours
Method: Compound 3b was studied in a sublethal model for acetaminophen (APAP)-induced Liver Injury.
ALF was induced in C57Bl/6 male mice with a single dose of acetaminophen (300 mg/kg) by i.p. injection. […] Serum alanine aminotransferase (ALT) was measured 22 h after APAP injection (n=5 mice for each group). […] ALF was induced in C57Bl/6 male mice with a single dose of acetaminophen (300 mg/kg) by i.p. injection. […] Twenty-two hours after APAP injection serum ALT was measured (indicated in FIG. 11A), centrilobular sections of mouse livers were cut and stained with hematoxylin and eosin, and the percentage of liver necrosis was determined. The data indicates a dose-dependent reduction of ALT levels of 9% to 83% relative to APAP control, and a dose-dependent reduction of necrosis of 0% to 56% relative to APAP control.
ALF was induced in C57Bl/6 male mice with a single dose of acetaminophen (300 mg/kg) by i.p. injection. […] Alanine aminotransferase (ALT) was measured 22 h after APAP injection (n=4 or n=5 mice for each group).
ALF was induced in C57Bl/6 male mice with a single dose of acetaminophen (300 mg/kg) by i.p. injection. […] Twenty-two hours after APAP injection, serum ALT was measured (indicated in FIGS. 12A-12B), centrilobular sections of mouse livers were cut and stained with hematoxylin and eosin, and the percentage of liver necrosis was determined.
ALF was induced in C57Bl/6 male mice with a single dose of acetaminophen (300 mg/kg) by i.p. injection.
FIG. 14 depicts the effect of late treatment with Compound 3b on serum ALT in ALF model. ALF was induced in C57Bl/6 male mice with a single dose of acetaminophen (300 mg/kg) by i.p. injection. At sixteen hours after APAP injection, the animals were treated with different doses of Compound 3b (0.3, 3, 30 or 60 mg/kg). Alanine aminotransferase (ALT) was measured 22 h after APAP injection (n=4 or n=5 mice for each group).
ALF was induced in C57Bl/6 male mice with a single dose of acetaminophen (300 mg/kg) by i.p. injection. […] Experiments 1 and 2 represent two independent experiments. Alanine aminotransferase (ALT) was measured 22 h after APAP injection (n=4 or n=5 mice for each group). The ALT levels and the respective percentage of ALT increase, relative to the increase observed in mice injected with APAP alone, are presented in Table 7.
ALF was induced in C57Bl/6 male mice with a single dose of acetaminophen (300 mg/kg) by i.p. injection. […] Twenty-two hours after APAP injection, serum ALT was measured and centrilobular sections of mouse livers were cut and stained with hematoxylin and eosin.

[2] = half-life for CO release in sheep blood using an oximeter; format: in vitro ADME; details: 632.1 μg/mL
Method: The stability of compound 4b was determined by measuring the release of CO in vitro in 50 mM Hepes buffer (pH 7.4) using a RCP-equipped GC. Compound 4b concentration was 50 μM. […] The half-life for CO release was also measured in sheep blood using an oximeter. A concentration of 632.1 μg/mL of compound 4b was used.
The half-life for CO release was also measured in sheep blood using an oximeter. […] Compound 5b released 0.12 molar equivalents of CO in 3 hours.

[3] = test system: murine partial hepatectomy model; details: from Yang et al., Crit. Care (2009); cited from earlier work
[4] = test system: lethal APAP liver failure model; assay: lethal APAP liver failure model (500 mg/kg APAP i.p.), survival; details: 2×300 mg/kg, same schedules; data not shown
[5] = NAC 2 × 300 mg/kg at 1 h and 3 h post APAP, serum 22 h

O=C([O-])CC([N+]#[C][Mo-6]([C]#[O+])([C]#[O+])([C]#[O+])([C]#[N+]C(CC(=O)[O-])C(=O)[O-])[C]#[N+]C(CC(=O)[O-])C(=O)[O-])C(=O)[O-].[Li+].[Li+].[Li+].[Li+].[Li+].[Li+] (centres unmarked) [Compound 4b, tricarbonyl[tris(lithium 2-isocyanosuccinate)]Mo(0)]
ALT levels reduced relative to untreated control animals ([1]; 30 mg/kg i.p. at +3 h): 75%

O=C(O)C1([N+]#[C][Mo-6]([C]#[O+])([C]#[O+])([C]#[O+])([C]#[N+]C2(C(=O)O)CC2)[C]#[N+]C2(C(=O)O)CC2)CC1 [Compound 5b, tricarbonyl[tris(isocyanocyclopropylcarboxylic acid)]Mo(0)]
ALT levels reduced relative to untreated control animals ([1]; 120 mg/kg i.p. at +3 h): 70%
CO released in sheep blood in 3 hours [2]: 0.12 molar equivalents of CO

CC(=O)N[C@@H](CS)C(=O)O [NAC, N-acetylcysteine, reference compound]
Measured ALT values (mean ± S.D.) Experiment 1 [1, 5]: 1745 ± 738 U/L
Measured ALT values (mean ± S.D.) Experiment 2 [1, 5]: 6620 ± 2142 U/L
effect on serum ALT when given late after APAP injury (in words) ([1]; five hours and seven hours after APAP, NAC 150 mg/kg, Compound 3b 120 mg/kg): no longer effective and increases serum ALT levels (is toxic)
effect on liver regeneration (in words) [3]: no effect and may be detrimental
survival [4]: 100%
